The record followed here is US20220062299A1, “USE OF GLUCOCORTICOID STEROIDS IN PREVENTING AND TREATING CONDITIONS OF MUSCLE WASTING, AGING AND METABOLIC DISORDER” (NORTHWESTERN UNIVERSITY, priority 2018, published 2022).

Molecules are shown by their SMILES.

One test relates to mdx mice. The test can be described thus: Metabolic cages (indirect calorimetry), mdx mice, 40 weeks. It counts as in vivo, mouse. The conditions noted are these: weekly prednisone. Here is the method: Metabolic cages. VO2 (ml/h/kg) and energy expenditure to body weight (kcal/h/kg) were assessed via indirect calorimetry using the TSE Automated Phenotyping System PhenoMaster (TSE system, Chesterfield, Mo.). Mice were singly housed in their home cages in an enclosed environmental chamber (part of the TSE system) with controlled temperature and light/dark cycles (12 hours each; 6 AM-6 PM). […] Measurements of CO2 production and O2 consumption occurred using the attached gas analyzer to assess energy expenditure. In addition, physical activity in three dimensions was monitored via infrared beam breaks through frames mounted on the perimeter of the metabolic cages. Enrichment items were omitted to avoid insulation from sensors and infrared light beam path obstruction. Results are expressed as 12 hour-period values (light/dark; 10 values per mouse). Metabolic cage assays were conducted blinded to treatment groups.

Test [1] has as its system quadriceps muscle of mdx mice. The test can be described thus: Tissue respirometry on quadriceps muscle. It is filed as in vivo, mouse. The conditions noted are these: weekly prednisone, opposite to daily dosing. Here is the method:
Tissue respirometry. Whole-tissue analysis of basal rates of oxygen consumption (OCR) and extracellular acidification (ECAR) was conducted adapting reported conditions for intact muscle tissue analysis (Shintaku and Guttridge, 2016) to the XF96 Extracellular Flux Analyzer platform (Agilent, Santa Clara, Calif.). Immediately after mouse sacrification, target muscle (quadriceps) tissues were quickly collected, rinsed in clean PBS buffer and dissected into approximately 2×2×2 mm pieces. At least three biopsies were sampled for each tissue. […] Respirometry analysis was then performed on equilibrated tissue biopsies using the following protocol for each basal or post-injection read: 3 min mix, 5 min delay, 2 min measure. Basal rate reads were collected for 6 consecutive times, then drugs were injected and control reads gathered for additional 3 consecutive times. […] Compound concentrations were determined on literature and/or preliminary test assays on wildtype muscle biopsies, and the concentration of the compound when loaded in the cartridge port was 10× in appropriate solvent (typically DMSO or ddH2O). OCR/ECAR reads were averaged for same tissue replicates and subtracted of background noise values (empty wells with only medium and appropriate compound). […]

For the compound `C[C@]12C=CC(=O)C=C1CC[C@@H]1[C@@H]2C(=O)C[C@@]2(C)[C@H]1CC[C@]2(O)C(=O)CO` [prednisone, Prednisone], the “oxygen consumption (VO2) and energy expenditure during nocturnal activity” value in the test with mdx mice is recorded as “increased”. In test [1], the glucose-fueled lactate production entry is “improved” and the valine-fueled oxygen consumption entry is given as “improved”.
